System: yeast genes (level of expressed mRNA)
Experiment: DNA chip analysis of expressed mRNA of yeast genes after 2 h culture with a toxic chemical substance
Format: cell-based, Saccharomyces cerevisiae S288C
Procedure: Yeast (Saccharomyces cerevtisiae S288C (α SUC2mal mel gap2 CUP1)) were cultured at 25° C. on YPD medium (yeast extract 1%, polypepton 2%, glucose 2%). One of toxic chemical substances was added to the cell at logarithmic growth phase, and the cell was further cultured for two hours. Cell was cultured without any chemical substance in the same condition, and was used as control. Concentrations of the chemical substances were defined to inhibit the growth of the yeast but not lead to death.
After the completion of cultivation, the culture was centrifuged to collect the cells. To the cells, sodium acetate buffer (50 mM sodium acetate, 10 mM EDTA, 1% SDS) was added, and the mixture was shaken at 65° C. for five minutes, followed by returning to room temperature, and obtaining the supernatant, which procedure was repeated two times. To the supernatant, ½ amount of a solution of phenol/chloroform was added, and the mixture was centrifuged to give a supernatant, which was added with an equal amount of chloroform, and the mixture was centrifuged to give a supernatant. To the supernatant, an equal amount of isopropanol containing 0.3 M sodium acetate was added, and the mixture was allowed to stand at room temperature for 30 minutes, after which the mixture was centrifuged to give a sediment of the whole RNAs. Seventy % ethanol was added to the sediment, and the mixture was again centrifuged to give a sediment, which was then dried and dissolved in water. mRNA was isolated from the whole RNAs as followings. In view of the fact that a poly A chain is attached to the 3′ terminus of mRNA, a polynucleotide having a poly T structure which was immobilized on the surface of latex beads was used to trap the mRNA, and then the mRNA was washed and eluted with spine column (Oligotex-dT30<Super>mRNA Purification Kit, Takara). Reverse transcription of the mRNA was conducted with a reverse transcriptase (Super Script II Reverse Transcriptase; catalogue No. 18064-014, GibcoBRL) using fluorescence-labeled nucleotides to give cDNAs that were introduced with Cy3-dUTP or Cy5-dUTP during the reverse transcription.
The labeled cDNAs were dissolved in TE buffer (10 mM Tris-HCl/1 mM EDTA, pH8.0), and the solution was dropped on the DNA chip containing the whole genes of yeast (DNA Chip Research Inc. Japan) so that the cDNAs were hybridized on the DNA chip at 65° C. for over 12 hours. The fluoresces intensity of the DNA chip was read with a scanner, and the ratio relative to the fluorescence intensity resulting from the absence of chemical substance was estimated as the following, which is shown in Tables 1 to 9: [formula]
In the Tables, “Intensity” indicated in the rightmost column is a value of the level of expressed mRNA of each gene in control cells as divided by the average level of the expressions of the whole genes.

## HgCl2 [(3)]
Yeast gene YNL074C, ratio to control without chemical substance, 2 h culture
  The level of expressed mRNA in the presence of chemical substance/: 1.8
Yeast gene YNL092W, ratio to control without chemical substance, 2 h culture
  The level of expressed mRNA in the presence of chemical substance/: 2.4
Yeast gene YNL093W
  The level of expressed mRNA in the presence of chemical substance/The level of expressed mRNA in the absence of chemical substance: 0.4
Yeast gene YNL115C, ratio to control without chemical substance, 2 h culture
  The level of expressed mRNA in the presence of chemical substance/: 1.6
Yeast gene YNL156C, ratio to control without chemical substance, 2 h culture
  The level of expressed mRNA in the presence of chemical substance/: 0.9
Yeast gene YNL234W, ratio to control without chemical substance, 2 h culture
  The level of expressed mRNA in the presence of chemical substance/: 0.6
Yeast gene YNL281W, ratio to control without chemical
  The level of expressed mRNA in the presence of chemical substance/: 2.0
Yeast gene YNL305C, ratio to control without chemical
  The level of expressed mRNA in the presence of chemical substance/: 2.7
Yeast gene YNL333W
  The level of expressed mRNA in the presence of chemical substance/The level of expressed mRNA in the absence of chemical substance: 1.7
Yeast gene YNR010W
  The level of expressed mRNA in the presence of chemical substance/The level of expressed mRNA in the absence of chemical substance: 0.5
Yeast gene YNR068C, ratio to control without chemical
  The level of expressed mRNA in the presence of chemical substance/: 2.3
Yeast gene YNR069C
  The level of expressed mRNA in the presence of chemical substance/The level of expressed mRNA in the absence of chemical substance: 0.7
Yeast gene YNR072W
  The level of expressed mRNA in the presence of chemical substance/in the absence of chemical substance: 0.5
Yeast gene YOL013C
  The level of expressed mRNA in the presence of chemical substance/The level of expressed mRNA in the absence of chemical substance: 1.0
Yeast gene YOL032W, ratio to control without chemical
  The level of expressed mRNA in the presence of chemical substance/: 2.0
Yeast gene YOL036W, ratio to control without chemical
  The level of expressed mRNA in the presence of chemical substance/: 1.3
Yeast gene YOL047C, ratio to control without chemical
  The level of expressed mRNA in the presence of chemical substance/: 1.1
Yeast gene YOL071W, ratio to control without chemical
  The level of expressed mRNA in the presence of chemical substance/: 1.7
Yeast gene YOL082W, ratio to control without chemical
  The level of expressed mRNA in the presence of chemical substance/: 1.6
Yeast gene YOL083W, ratio to control without chemical
  The level of expressed mRNA in the presence of chemical substance/: 1.2
Yeast gene YOL096C
  The level of expressed mRNA in the presence of chemical substance/in the absence of chemical substance: 1.2
Yeast gene YOL117W, ratio to control without chemical
  The level of expressed mRNA in the presence of chemical substance/: 0.5
Yeast gene YOL131W, ratio to control without chemical
  The level of expressed mRNA in the presence of chemical substance/: 0.6
Yeast gene YOL150C, ratio to control without chemical substance, 2 h culture
  The level of expressed mRNA in the presence of chemical substance/: 9.9
Yeast gene YOL162W, ratio to control without chemical
  The level of expressed mRNA in the presence of chemical substance/: 1.7
Yeast gene YOL164W
  The level of expressed mRNA in the presence of chemical substance/The level of expressed mRNA in the absence of chemical substance: 1.0
Yeast gene YOR019W, ratio to control without chemical
  The level of expressed mRNA in the presence of chemical substance/: 0.8
Yeast gene YOR036W
  The level of expressed mRNA in the presence of chemical substance/The level of expressed mRNA in the absence of chemical substance: 1.4
Yeast gene YOR117W
  The level of expressed mRNA in the presence of chemical substance/The level of expressed mRNA in the absence of chemical substance: 1.7
Yeast gene YOR124C
  The level of expressed mRNA in the presence of chemical substance/The level of expressed mRNA in the absence of chemical substance: 1.3
Yeast gene YOR132W
  The level of expressed mRNA in the presence of chemical substance/The level of expressed mRNA in the absence of chemical substance: 0.8
Yeast gene YOR157C
  The level of expressed mRNA in the presence of chemical substance/The level of expressed mRNA in the absence of chemical substance: 1.2
Yeast gene YOR180C
  The level of expressed mRNA in the presence of chemical substance/in the absence of chemical substance: 1.0
Yeast gene YOR181W
  The level of expressed mRNA in the presence of chemical substance/The level of expressed mRNA in the absence of chemical substance: 1.1
Yeast gene YOR185C
  The level of expressed mRNA in the presence of chemical substance/The level of expressed mRNA in the absence of chemical substance: 1.9
Yeast gene YOR197W, ratio to control without chemical
  The level of expressed mRNA in the presence of chemical substance/: 1.1
Yeast gene YOR198C
  The level of expressed mRNA in the presence of chemical substance/The level of expressed mRNA in the absence of chemical substance: 1.4
Yeast gene YOR259C
  The level of expressed mRNA in the presence of chemical substance/The level of expressed mRNA in the absence of chemical substance: 0.8
Yeast gene YOR261C
  The level of expressed mRNA in the presence of chemical substance/The level of expressed mRNA in the absence of chemical substance: 0.6
Yeast gene YOR288C
  The level of expressed mRNA in the presence of chemical substance/The level of expressed mRNA in the absence of chemical substance: 1.1
Yeast gene YOR355W
  The level of expressed mRNA in the presence of chemical substance/The level of expressed mRNA in the absence of chemical substance: 1.1
Yeast gene YOR363C
  The level of expressed mRNA in the presence of chemical substance/in the absence of chemical substance: 0.9
Yeast gene YOR383C
  The level of expressed mRNA in the presence of chemical substance/The level of expressed mRNA in the absence of chemical substance: 2.6
Yeast gene YPL087W, ratio to control without chemical
  The level of expressed mRNA in the presence of chemical substance/: 3.0
Yeast gene YPL089C
  The level of expressed mRNA in the presence of chemical substance/The level of expressed mRNA in the absence of chemical substance: 0.5
Yeast gene YPL109C
  The level of expressed mRNA in the presence of chemical substance/The level of expressed mRNA in the absence of chemical substance: 0.5
Yeast gene YPL149W
  The level of expressed mRNA in the presence of chemical substance/The level of expressed mRNA in the absence of chemical substance: 0.6
Yeast gene YPL154C
  The level of expressed mRNA in the presence of chemical substance/The level of expressed mRNA in the absence of chemical substance: 4.2
Yeast gene YPL196W, ratio to control without chemical
  The level of expressed mRNA in the presence of chemical substance/: 1.3
Yeast gene YPL206C, ratio to control without chemical
  The level of expressed mRNA in the presence of chemical substance/: 1.4
Yeast gene YPL222W, ratio to control without chemical
  The level of expressed mRNA in the presence of chemical substance/: 0.8
Yeast gene YPR023C, ratio to control without chemical
  The level of expressed mRNA in the presence of chemical substance/: 1.2
Yeast gene YPR103W
  The level of expressed mRNA in the presence of chemical substance/The level of expressed mRNA in the absence of chemical substance: 1.3
Yeast gene YPR108W
  The level of expressed mRNA in the presence of chemical substance/The level of expressed mRNA in the absence of chemical substance: 1.3
Yeast gene YPR151C, ratio to control without chemical
  The level of expressed mRNA in the presence of chemical substance/: 1.5
Yeast gene YPR184W
  The level of expressed mRNA in the presence of chemical substance/in the absence of chemical substance: 5.7

Reference: patent publication US20050112573A1, “Method of detecting toxic substance” (priority 2001, published 2005)
